According to the NIST ThermoML archive (doi:10.1016/j.jct.2018.08.004):

Key:
[1] = xn = mol fraction of the nth substance listed; conditions: x2 = 0; for surface tension liquid-gas: Maximal bubble pressure; for mass density: 100 kPa, Liquid, Vibrating tube method
[2] = Maximal bubble pressure

CCCO [propan-1-ol] + CCCC[n+]1ccccc1.N#C[N-]C#N
[1]
Conditions | mass density [kg/m3] | surface tension liquid-gas [mN/m]
288.15 K | 807.55 | 24.5
293.15 K | 803.59 | 23.9
298.15 K | 799.58 | 23.4
303.15 K | 795.55 | 23
308.15 K | 791.47 | 22.5
313.15 K | 787.36 | 22.1
318.15 K | 783.2 | 21.6

CC(C)O [propan-2-ol]
[2]
Conditions | surface tension liquid-gas [mN/m]
288.15 K | 22.2
293.15 K | 21.7
298.15 K | 21.2
303.15 K | 20.8
308.15 K | 20.3
313.15 K | 19.9
318.15 K | 19.4

CCO [ethanol]
[2]
Conditions | surface tension liquid-gas [mN/m]
288.15 K | 23.3
293.15 K | 22.7
298.15 K | 22.2
303.15 K | 21.6
308.15 K | 21.1
313.15 K | 20.7
318.15 K | 20

CCO [ethanol] + CCCC[n+]1ccccc1.N#C[N-]C#N
[1]
Conditions | mass density [kg/m3] | surface tension liquid-gas [mN/m]
288.15 K | 793.91 | 23.3
293.15 K | 789.66 | 22.7
298.15 K | 785.73 | 22.2
303.15 K | 781.05 | 21.6
308.15 K | 776.7 | 21.1
313.15 K | 772.31 | 20.7
318.15 K | 767.88 | 20

CC(C)O [propan-2-ol] + CCCC[n+]1ccccc1.N#C[N-]C#N
[1]
Conditions | mass density [kg/m3] | surface tension liquid-gas [mN/m]
288.15 K | 789.41 | 22.2
293.15 K | 785.29 | 21.7
298.15 K | 781.08 | 21.2
303.15 K | 776.81 | 20.8
308.15 K | 772.46 | 20.3
313.15 K | 768.02 | 19.9
318.15 K | 763.48 | 19.4

CCCO [propan-1-ol]
[2]
Conditions | surface tension liquid-gas [mN/m]
288.15 K | 24.5
293.15 K | 23.9
298.15 K | 23.4
303.15 K | 23
308.15 K | 22.5
313.15 K | 22.1
318.15 K | 21.6
